Laboratory results as given in patent US20170142972A1, “ANTIMICROBIAL COMPOSITION INHIBITS BACTERIA AND FUNGI” (Troy Corporation, priority 2017, published 2017).

System: Pseudomonas aeruginosa (ATCC #10145), Escherichia coli (ATCC #11229), Enterobacter aerogenes (ATCC #13048), and Alcaligenes faecalis (ATCC #25094)
Experiment: Challenge Method for Quantifying Antibacterial Effectiveness (two 7-day cycles, mixed bacterial inoculum)
Type: cell-based
Settings: agent alone
Method: In order to quantify the relative antibacterial effectiveness of an antimicrobial composition, samples are prepared by adding various amounts of the antimicrobial composition to identical volumes of a sterile test material. […] Each of the samples is subjected to a two-part challenge procedure and the sample that provides acceptable anti-bacterial protection with the lowest concentration of the antimicrobial composition is identified. Each part of the anti-bacterial challenge consists of a 7-day test cycle. The parts are performed consecutively over 14 test days. […] Challenge testing is accomplished using a mixed bacterial inoculum as the contamination event. These bacteria are Pseudomonas aeruginosa (ATCC #10145), Escherichia coli (ATCC #11229), Enterobacter aerogenes (ATCC #13048), and Alcaligenes faecalis (ATCC #25094). To make the test inoculum, each type of bacteria is grown separately in nutrient broth. Just before use in the challenge test, equal volumes of the four types of bacteria are blended together to make a mixed inoculum. After incubation, both control blanks and samples containing preservative are inoculated with the mixed inoculum. […] Performance ratings of 0, 1, 2, 3 or 4 for each test sample are determined by visual inspection according to the definitions set forth below in Table 1.

## O=c1[nH]sc2ccccc12 [BIT, benzisothiazolinone]
adhesive
  concentration alone required to provide the required protection against bacterial growth on Test Day 14: at least 0.013%
paint
  concentration alone required to provide the required protection against bacterial growth on Test Day 14: at least 0.004%
